Source: patent US6214795A, “Peptide compounds useful for modulating FGF receptor activity” (Praecis Pharmaceuticals, Inc., priority 1996, dated 2001)
Read-outs that look alike come from different tables or passages of the source. Residues, ends and D or L forms follow the SMILES beside them. No end group written: not given here. *: point of attachment. Biotin = O=C1N[C@H]2[C@H](CS[C@H]2CCCCC(=O)*)N1

How the values were obtained:
FGFR2-IIIC = FGFR2-IIIC (Homo sapiens, UniProt P21802); experiment: FGF receptor binding assay: inhibition of 125I-bFGF binding to FGF receptor
Method: The ability of a peptide compound to bind to an FGF receptor can be determined using one or both of the receptor binding assays described in this example, which measure the ability of a test compound to inhibit the binding of radiolabeled bFGF to the FGF receptor. The first assay is a cell-based assay, utilizing FGF receptor-expressing cells. Cells expressing an FGF receptor are seeded on a 96 well plate (50,000 cells/well) and incubated overnight at 37° C., 5% CO2. The cells are then washed once with binding buffer (Dulbecco's Modified Eagle's Medium (DMEM) with HEPES, gelatin and heparin). A test peptide is diluted to the desired concentration in binding buffer with heparin (15 U/ml) and added to the cells (25 μl per well). ^125 I-bFGF (50,000 cpm/well; Amersham Life Sciences), diluted in binding buffer with heparin, is added to each well (25 μl per well so that final volume is 50 μl). The cells are incubated in a humidified chamber at 4° C. for 3 hours. The cells are washed twice with binding buffer to remove unbound material. The washed cells are then dissolved in 100 μl of 1N NaOH and counted in a gamma counter. The ability of a test compound to bind to FGFR is evidenced by the reduced binding of ^125 I-bFGF to the cells in the presence of the test compound as compared to the binding of ^125 I-bFGF to the cells in the absence of the test compound.
A second FGFR binding assay utilizes biotinylated soluble FGFR. Biotinylated FGFR is mixed in an eppendorf tube with ^125 I-bFGF and a test compound in binding buffer. The tubes are placed on an eppendorf roller at 4° C. for 1.5 hours. Magnetic streptavidin beads (CPG, Inc.) are prepared by washing twice with binding buffer. After the 1.5 hour incubation of the tubes, 15 μl of magnetic streptavidin beads are added to each tube and continued on the eppendorf roller for 10 minutes at 4° C. to allow the strepavidin to interact with the biotinylated FGFR. The tubes are removed from the roller and spun down in a microfuge for 2 minutes at 3000 rpm. Using magnets, the magnetic beads are washed twice with binding buffer. 100 μl of binding buffer is added to each tube and the contents are moved to a 12×75 mm test tube. The contents (i.e., strepavidin beads, with biotinylated FGFR and ^125 I-bFGF bound thereto) are counted in a Gamma counter. The ability of a test compound to bind to FGFR is evidenced by the reduced binding of ^125 I-bFGF to the biotinylated FGFR in the presence of the test compound as compared to the binding of ^125 I-bFGF to the biotinylated FGFR in the absence of the test compound.

NIH 3T3 cells = assay type: cell-based
Method: A second functional assay for FGFR is a proliferation assay, based on the fact that NIH 3T3 cells show enhanced growth in the presence of increasing concentrations of bFGF. NIH 3T3 cells are cultured (e.g., about 3 days) with bFGF (10 nM) in the presence or absence of a test peptide compound. Cell growth is quantitated using a standard method for detecting cell growth, such as tritiated thymidine incorporation or uptake of 3, ([…])2,5-diphenyl-tetrazolium bromide (MTT). MTT (commercially available from Sigma Chemical Co.) is a chromogenic substrate that is converted from yellow to blue in viable cells, which can be detected spectrophotometrically.

p42-MAP kinase = experiment: Signal transduction assay: bFGF-induced phosphorylation/activation of MAP kinase in NIH 3T3 cells; assay type: cell-based
Excerpt: The effect of peptide compounds on the functional activity of an FGF receptor can be evaluated in one or both of the functional assays described in this example. The first assay is a signal transduction assay, exploiting the fact that bFGF binding to FGFR initiates a phosphorylation cascade that includes the phosphorylation of MAP kinase (MAP-K). Accordingly, the ability of a test compound to modulate bFGF-induced phosphorylation of MAP-K is examined. NIH 3T3 cells are synchronized to quiescence by growing in medium containing 0.5% fetal bovine serum (FBS) for 2 days. The cells are then shifted into fresh 0.5% FBS-containing medium for 2 hours to reduce the basal level of MAP-K phosphorylation before the experiment. Test peptide compounds are dissolved in fresh dimethyl sulfoxide (DMSO) to 100 mg/ml and series dilutions are made in DMSO. […] Phosphorylation of MAP-K in the 3T3 cells is initiated by incubating the cells with the bFGF-containing medium in the presence or absence of test peptide for 15 minutes at 37° C. The phosphorylation is stopped by washing with cells with PBS and lysing the cells with sodium […] (SDS)-containing buffer. Cell lysates are separated on 12% SDS polyacrylamide gels and the proteins are transferred onto PVDF membranes. Membrane-bound cellular proteins are probed with a rabbit anti-phosphoMAP-K antibodies, followed by a goat anti-rabbit secondary antibody, labeled with horse radish peroxidase. The blots are then detected by the enhanced chemiluminescence (ECL) method.

[1] = Table 5 peptides (bFGF-binding peptides)
[2] = Table 3 peptides, inhibition of bFGF binding to FGFR2-IIIC
[3] = Table 3 peptides, values given in mM
[4] = Table 3 peptides, bFGF-induced MAP-K phosphorylation, read-out: MAP-K

Sequence of FGFR2-IIIC (P21802 22-377 limits assumed, species assumed): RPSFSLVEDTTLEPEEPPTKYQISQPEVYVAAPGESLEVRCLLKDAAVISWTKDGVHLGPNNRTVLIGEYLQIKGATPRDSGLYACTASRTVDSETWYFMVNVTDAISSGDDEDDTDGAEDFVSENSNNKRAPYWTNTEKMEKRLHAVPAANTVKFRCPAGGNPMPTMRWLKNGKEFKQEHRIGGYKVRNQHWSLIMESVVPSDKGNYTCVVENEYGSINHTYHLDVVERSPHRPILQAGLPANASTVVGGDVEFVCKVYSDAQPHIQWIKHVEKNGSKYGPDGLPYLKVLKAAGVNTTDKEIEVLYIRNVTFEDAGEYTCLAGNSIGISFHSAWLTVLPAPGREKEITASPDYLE

Molecule: CC(C)C[C@H](NC(=O)[C@H](CC(C)C)NC(=O)[C@H](CC(=O)O)NC(=O)[C@H](CC(=O)O)NC(=O)[C@H](Cc1c[nH]c2ccccc12)NC(=O)[C@H](CC(=O)O)NC(=O)[C@H](Cc1ccc(O)cc1)NC(=O)CNC(=O)[C@H](C)NC(=O)[C@H](C)NC(=O)CNC(=O)[C@H](CC(=O)O)NC(=O)[C@H](C)NC(=O)CCCC[C@@H]1SC[C@@H]2NC(=O)N[C@@H]21)C(=O)N[C@@H](CO)C(=O)NCC(=O)N[C@@H](C)C(=O)N[C@@H](C)C(N)=O [Compound 476, Biotin-ADGAAGYDWDDLLSGAA-NH] (Biotin-ADGAAGYDWDDLLSGAA-NH2)
- IC50 (FGFR2-IIIC; [1]): > 0.1 mM
- IC50 (NIH 3T3 cells): > 100 µM

Molecule: CC(C)C[C@H](NC(=O)[C@H](CC(C)C)NC(=O)[C@H](CC(=O)O)NC(=O)[C@H](CC(=O)O)NC(=O)[C@H](Cc1c[nH]c2ccccc12)NC(=O)[C@H](CC(=O)O)NC(=O)[C@H](Cc1ccc(O)cc1)NC(=O)CNC(=O)[C@H](C)NC(=O)[C@H](C)NC(=O)CNC(=O)[C@H](CC(=O)O)NC(=O)[C@H](C)NC(=O)CCCC[C@@H]1SC[C@@H]2NC(=O)N[C@@H]21)C(=O)NCC(=O)NCC(=O)N[C@@H](C)C(=O)N[C@@H](C)C(N)=O [Compound 478, Biotin-ADGAAGYDWDDLLGGAA-NH] (Biotin-ADGAAGYDWDDLLGGAA-NH2)
- IC50 (FGFR2-IIIC; [1]): > 0.1 mM
- IC50 (NIH 3T3 cells): > 100 µM

Molecule: CC(C)C[C@H](NC(=O)[C@H](CC(=O)O)NC(=O)[C@@H](NC(=O)[C@H](CS)NC(=O)CNC(=O)[C@H](C)NC(=O)[C@H](C)NC(=O)CNC(=O)[C@H](CC(=O)O)NC(=O)[C@H](C)N)C(C)C)C(=O)N[C@@H](Cc1ccc(O)cc1)C(=O)N[C@@H](Cc1c[nH]cn1)C(=O)N[C@@H](Cc1ccc(O)cc1)C(=O)N[C@H](C(=O)N[C@@H](Cc1ccc(O)cc1)C(=O)N[C@@H](CS)C(=O)NCC(=O)NCC(=O)N[C@@H](C)C(=O)N[C@@H](C)C(N)=O)C(C)C [Compound 507] (H-ADGAAGCVDLYHYVYCGGAA-NH2)
- IC50 (NIH 3T3 cells): 10 to 100 µM
- Effect on proliferative activity of bFGF (NIH 3T3 cells; NIH 3T3 cells): antagonists of the proliferative activity of bFGF

Molecule: CC(=O)NCC(=O)N[C@@H](CS)C(=O)N[C@H](C(=O)N[C@@H](CC(C)C)C(=O)N[C@@H](CC(C)C)C(=O)N[C@@H](Cc1ccc(O)cc1)C(=O)N[C@@H](CC(=O)O)C(=O)N[C@@H](CCC(=O)O)C(=O)N[C@@H](CCCNC(=N)N)C(=O)N[C@H](C(=O)N[C@@H](CS)C(=O)NCC(N)=O)[C@@H](C)O)C(C)C [Compound 513, Acetyl-GCVLLYDERTCG-NH] (Ac-GCVLLYDERTCG-NH2)
- IC50 (NIH 3T3 cells): > 100 µM

Molecule: CC(=O)NCC(=O)N[C@@H](CS)C(=O)N[C@H](C(=O)N[C@@H](CC(=O)O)C(=O)N[C@@H](CC(C)C)C(=O)N[C@@H](Cc1ccc(O)cc1)C(=O)N[C@@H](Cc1c[nH]cn1)C(=O)N[C@@H](Cc1ccc(O)cc1)C(=O)N[C@H](C(=O)N[C@@H](Cc1ccc(O)cc1)C(=O)N[C@@H](CS)C(=O)NCC(N)=O)C(C)C)C(C)C [Compound 514, Acetyl-GCVDLYHYVYCG-NH] (Ac-GCVDLYHYVYCG-NH2)
- IC50 (p42-MAP kinase; Table 5 peptides, read-out: MAP-K): ~50 µM
- IC50 (NIH 3T3 cells): 10 to 100 µM
- Effect on proliferative activity of bFGF (NIH 3T3 cells; NIH 3T3 cells): antagonists of the proliferative activity of bFGF

Molecule: ADGAAGSWGDWERSGDWFGGAA-NH2 [Compound 509]
- IC50 (FGFR2-IIIC; [1]): > 0.1 mM
- IC50 (NIH 3T3 cells): > 100 µM

Molecule: ADGAAGYDWDDLLGGAA-NH2 [Compound 477, H-ADGAAGYDWDDLLGGAA-NH*TFA]
- IC50 (FGFR2-IIIC; [1]): > 0.1 mM
- IC50 (NIH 3T3 cells): > 100 µM

Molecule: ADGAAGYDWDDLLSGAA-NH2 [Compound 475, H-ADGAAGYDWDDLLSGAA-NH*TFA]
- IC50 (FGFR2-IIIC; [1]): > 0.1 mM
- IC50 (NIH 3T3 cells): > 100 µM

Molecule: AHYLRQYLMRFR-NH2 [Compound 673, H-AHYLRQYLMRFR-NH*TFA]
- IC50 (FGFR2-IIIC; [2]): ~0.008 mM

Molecule: Ac-GHDGEMYG-OH [Compound 660, Acetyl-GHDGEMYG-OH]
- IC50 (FGFR2-IIIC; [3]): > 1 mM

Molecule: Ac-GSWGDWERSGDWFG-NH2 [Compound 512, Acetyl-GSWGDWERSGDWFG-NH]
- IC50 (FGFR2-IIIC; [1]): > 0.1 mM
- IC50 (NIH 3T3 cells): > 100 µM

Molecule: GAHNLRQYLMRFLG [Compound 623, H-GAHNLRQYLMRFLG-OH*TFA]
- IC50 (FGFR2-IIIC; [2]): ~0.12 mM
- IC50 (p42-MAP kinase; [4]): ~50 µM
- Effect on activation of MAP-K by bFGF (p42-MAP kinase; increasing concentrations of compound): clearly antagonized
- IC50 (NIH 3T3 cells): ~100 µM

Molecule: GAHYLRQYLMRFLG-NH2 [Compound 658, H-GAHYLRQYLMRFLG-NH*TFA]
- IC50 (FGFR2-IIIC; [2]): ~0.008 mM
- IC50 (p42-MAP kinase; 1 nM bFGF, FIG. 5, read-out: Concentration that half maximally antagonizes bFGF activation of MAP-K): ~3 µM
- IC50 (p42-MAP kinase; [4]): ~1 µM
- IC50 (NIH 3T3 cells; NIH 3T3 cells, 10 nM bFGF, FIG. 6, read-out: Concentration that half maximally reduces bFGF-induced proliferation): 40 µM

Molecule: GAHYLRQYLMRFRG-NH2 [Compound 668, H-GAHYLRQYLMRFRG-NH*TFA]
- IC50 (FGFR2-IIIC; [2]): ~0.003 mM

Molecule: GAHYLRQYMMRFLG-NH2 [Compound 669, H-GAHYLRQYMMRFLG-NH*TFA]
- IC50 (FGFR2-IIIC; [2]): ~0.02 mM

Molecule: GDVFLSMYQFSVIG [Compound 622, H-GDVFLSMYQFSVIG-OH*TFA]
- IC50 (FGFR2-IIIC; [2]): > 0.1 mM

Molecule: GFLGKYMESLMRMG-NH2 [Compound 659, H-GFLGKYMESLMRMG-NH*TFA]
- IC50 (FGFR2-IIIC; [2]): ~0.3 mM

Molecule: GFLMMYMMG [Compound 566, H-GFLMMYMMG-OH*TFA]
- IC50 (FGFR2-IIIC; [2]): > 0.1 mM

Molecule: GKALEWYKSLMRMG-NH2 [Compound 661, H-GKALEWYKSLMRMG-NH*TFA]
- IC50 (FGFR2-IIIC; [2]): ~0.3 mM

Molecule: GSLMRMG-NH2 [Compound 663, H-GSLMRMG-NH*TFA]
- IC50 (FGFR2-IIIC; [3]): > 1 mM

Molecule: GYFQYMALYG [Compound 567, H-GYFQYMALYG-OH*TFA]
- IC50 (FGFR2-IIIC; [2]): > 0.1 mM

Molecule: GYLAQYMARG-NH2 [Compound 662, H-GYLAQYMARG-NH*TFA]
- IC50 (FGFR2-IIIC; [2]): ~0.3 mM

Molecule: GYLYLYMVG [Compound 656, H-GYLYLYMVG-OH*TFA]
- IC50 (FGFR2-IIIC; [2]): > 0.1 mM

Molecule: GYYLLWMVG [Compound 564, H-GYYLLWMVG-OH*TFA]
- IC50 (FGFR2-IIIC; [2]): > 0.1 mM

Molecule: HYLRQYLMRFR-NH2 [Compound 672, H-HYLRQYLMRFR-NH*TFA]
- IC50 (FGFR2-IIIC; [2]): ~0.008 mM

Molecule: LRQYLMRFR-NH2 [Compound 670, H-LRQYLMRFR-NH*TFA]
- IC50 (FGFR2-IIIC; [2]): ~0.12 mM

Molecule: YLRQYLMRFR-NH2 [Compound 671, H-YLRQYLMRFR-NH*TFA]
- Binding IC50 (FGFR2-IIIC; [2]): does not appear to further increase the IC50
- IC50 (FGFR2-IIIC; [2]): ~0.008 mM

Molecule: bFGF: basic fibroblast growth factor, the FGF receptor ligand used as stimulus and unlabeled competitor [reference compound]
- Activation of MAP-K (p42-MAP kinase; 1 and 10 nM, without test peptide, FIG. 3): 40-60%
